Here are results for three compounds from patent publication US12607406B2, “Recombinant virus, composition comprising the same, and uses thereof” (ACADEMIA SINICA, priority 2016, dated 2026).

Format in all cases: biochemical
For assay [1], the system named is Influenza A virus A/WSN/33 (H1N1) neuraminidase (NA) on virus, variant 44-72-G, substitutions at positions 44 and 72, SEQ ID NO: 10.
In assay [2] the test system is Influenza A virus A/WSN/33 (H1N1) neuraminidase (NA) variant 44-G, substitution at position 44, SEQ ID NO: 8.
Assay [3] relates to Influenza A virus A/WSN/33 (H1N1) neuraminidase (NA) variant 72-G, substitution at position 72, SEQ ID NO: 9.
Assay [4] relates to Influenza A virus A/WSN/33 (H1N1) neuraminidase (NA) variant 44-72-G, substitutions at positions 44 and 72, SEQ ID NO: 10.
The test system of assay [5] is Influenza A virus A/WSN/33 (H1N1) neuraminidase (NA) on virus, variant 44-72-219-G, substitutions at positions 44, 72, and 219, SEQ ID NO: 11.
Assay [6] deals with Influenza A virus A/WSN/33 (H1N1) neuraminidase (NA) on virus, variant 72-G, substitution at position 72, SEQ ID NO: 9.
Assay [7] has as its system Influenza A virus A/WSN/33 (H1N1) neuraminidase (NA) variant 44-72-219-G, substitutions at positions 44, 72, and 219, SEQ ID NO: 11.
The subject of assay [8] is Influenza A virus A/WSN/33 (H1N1) neuraminidase (NA) on virus, variant 44-G, substitution at position 44, SEQ ID NO: 8.
Assay [9] relates to Influenza A virus A/WSN/33 (H1N1) neuraminidase (NA), all mutants (44-G, 72-G, 44-72-G, 44-72-219-G).

As usually defined, the Km is the substrate concentration at which the rate is half of its maximum. For orientation: Vmax means the rate approached at saturating substrate.

With `CC(=O)N[C@H]1[C@H]([C@H](O)[C@H](O)CO)O[C@@](O[C@H]2[C@@H](O)[C@@H](CO)O[C@@H](O[C@H]3[C@H](O)[C@@H](NC(C)=O)C(O)O[C@@H]3CO)[C@@H]2O)(C(=O)O)C[C@@H]1O` (stereo partly shown) [3SLN, 3′-sialyl-N-acetyllactosamine], the Michaelis constant (Km) was found to be 285 µM in [1]; 295 µM in assay [2]; 289 µM in assay [3]; 296 µM in assay [4]; 281 µM in assay [5]; 268 µM in assay [6]. Moreover, the values for the Km in assay [7] and in [8] were 299 µM and 274 µM, respectively. The Kcat came out at 389.8 s⁻¹ in assay [2], 364.4 s⁻¹ in assay [3], 136.4 s⁻¹ in [4] and 139.1 s⁻¹ in assay [7]. Moreover, the Km value increased entry in [2] and in assay [3] was “more than two-fold” throughout. Besides, the Vmax in assay [2] turned out to be 4.09 nM/s; in assay [3], 3.89 nM/s; in assay [4] it was 1.46 nM/s; in assay [7] it was 1.48 nM/s.
For `CC(=O)N[C@H]1[C@H]([C@H](O)[C@H](O)CO)O[C@@](Oc2ccc3c(C)cc(=O)oc3c2)(C(=O)O)C[C@@H]1O` [4-Muα-Neu5Ac, 2-(4-methylumbelliferyl)-α-D-N-acetylneuraminic acid], the Km stood at 429 µM in [1]; 595 µM in assay [2]; 591 µM in [3]; 588 µM in [4]; 415 µM in [5]; 485 µM in assay [6]. In addition, the Km is 597 µM in assay [7] and 508 µM in assay [8]. For the same compound, the Kcat was 468.5 s⁻¹ in [2], 426.8 s⁻¹ in [3], 100.3 s⁻¹ in [4] and 105.8 s⁻¹ in [7]. For the same compound, the Vmax in assay [2] stood at 4.95 nM/s; in assay [3] it was 4.45 nM/s; in assay [4] it was 1.15 nM/s; in assay [7] it was 1.2 nM/s. Moreover, the “Km values of all mutants” value in [9] was “similar”.
As to `CC(=O)N[C@H]1[C@H]([C@H](O)[C@H](O)CO)O[C@@](OC[C@H]2O[C@@H](O[C@H]3[C@H](O)[C@@H](NC(C)=O)C(O)O[C@@H]3CO)[C@H](O)[C@@H](O)[C@H]2O)(C(=O)O)C[C@@H]1O` (stereo partly shown) [6SLN, 6′-sialyl-N-acetyllactosamine], the Km in assay [1] is 521 µM; in [2] it was 684 µM; in assay [3], 688 µM; in assay [4] it was 679 µM; in assay [5] it was 515 µM; in assay [6] it was 540 µM. Besides, the Km turned out to be 675 µM in assay [7] and 525 µM in [8]. For the same compound, the Kcat in assay [2] was found to be 90.6 s⁻¹; in assay [3] it was 83.6 s⁻¹; in assay [4], 19.8 s⁻¹; in assay [7], 20.7 s⁻¹. The Vmax came out at 0.92 nM/s in assay [2], 0.85 nM/s in assay [3], 0.24 nM/s in assay [4] and 0.21 nM/s in assay [7]. In assay [9], the “Km values of all mutants” value is on record as “similar”.
